Experimental data taken from patent US9260504B2, “N- and C-terminal substituted antagonistic analogs of GH-RH” (University of Miami, priority 2008, dated 2016).

Key:
[1] = tested on: PC-3 human hormone-independent prostate cancer; assay: PC-3 human prostate cancer xenografts in nude mice, Experiment 4; format: in vivo; conditions: for Tumor growth after 28 days (%) / Tumor growth after 46 days (%) / Inhibition (%): 2 μg/day s.c.; for Inhibitory effect on PC-3 tumors compared with reference peptide JMR-132: 2 μg/day vs JMR-132 10 μg/day, after 46 days of treatment
Method: Male nude mice were implanted s.c. with 3 mm^3 pieces of PC-3 human hormone-independent prostate cancer tissue on both flanks. When tumors reached a volume of approximately 50 mm^3, the mice were divided into 12 experimental groups with 8 to 10 animals in each group and received single daily injections for 28 days as follows: 1. Control (vehicle solution); 2. JMR-132 (10 μg/day s.c.); 3. Peptide 11113 (2 μg/day s.c.); 4. Peptide 11119 (2 μg/day s.c.); 5. Peptide 11209 (2 μg/day s.c.); 6. Peptide 11313 (2 μg/day s.c.); 7. Peptide 11408 (2 μg/day s.c.); 8. Peptide 11435 (2 μg/day s.c.); 9. Peptide 11457 (2 μg/day s.c.); 10. Peptide 11459 (2 μg/day s.c.); 11. Peptide 11469 (2 μg/day s.c.); 12. Peptide 11491 (2 μg/day s.c.).
(§1) Tumor volumes were measured once a week. The experiment was ended on day 28 by sacrificing the mice under Isoflurane anesthesia. Resulting tumors were cleaned, weighed, and snap-frozen until further analyses. Statistical analyses of the measurement results were done by two-tailed t-test, p<0.05 being considered significant.
All experimental details of Experiment 4 are the same as for Experiment 3, with the following difference. When tumors reached a volume of approximately 50 mm^3, the mice were divided into 11 experimental groups with 8 to 10 animals in each group and received single daily injections for 46 days as follows: 1. Control (vehicle solution); 2. JMR-132 (10 μg/day s.c.); 3. Peptide 11123 (2 μg/day s.c.); 4. Peptide 11125 (2 μg/day s.c.); 5. Peptide 11213 (2 μg/day s.c.); 6. Peptide 11433 (2 μg/day s.c.); 7. Peptide 11473 (2 μg/day s.c.); 8. Peptide 11485 (2 μg/day s.c.); 9. Peptide 11497 (2 μg/day s.c.); 10. Peptide 11499 (2 μg/day s.c.); 11. Peptide 11521 (2 μg/day s.c.). Tumor volumes were measured once a week. The experiment was ended on day 46 by sacrificing the mice under Isoflurane anesthesia. Resulting tumors were cleaned, weighed, and snap-frozen until further analyses. Statistical analyses of the measurement results were done by two-tailed t-test, p<0.05 being considered significant.

[2] = tested on: PC-3 human hormone-independent prostate cancer; assay: PC3 androgen-independent prostate cancer xenografts in nude mice (Example XIV); format: in vivo; conditions: 2 μg/day
Method: Male nude mice were implanted s.c. with 3 mm^3 pieces of PC-3 human hormone-independent prostate cancer tissue on both flanks. When tumors reached a volume of approximately 50 mm^3, the mice were divided into 8 experimental groups with 8 to 10 animals in each group and received single daily injections for 28 days as follows: 1. Control (vehicle solution); 2. P-11513 2 μg/day; 3. P-11602 2 μg/day; 4. P-11602 1 μg/day; 5. P-11604 2 μg/day; 6. P-11606 2 μg/day; 7. P-11610 2 μg/day; 8. P-11610 1 μg/day.
as §1

[(Ac-Amc)^0-Tyr^1, D-Arg^2, Cpa^6, Ala^8, Har^9, Tyr(Me)^10, His^11, Orn^12, Abu^15, His^20, Orn^21, Nle^27, D-Arg^28, Har^29-Ada^30]hGH-RH(1-29)NH2 [Peptide 11497]
Tumor growth after 28 days (%) [1]: 872%
Tumor growth after 46 days (%) [1]: 1658%
Inhibitory effect on PC-3 tumors compared with reference peptide JMR-132 [1]: had a more potent inhibitory effect than reference peptide JMR-132
Inhibition (%) ([1]; after 28 days): 36.25%
Inhibition (%) ([1]; after 46 days): 50.22%

[Nac^0-Tyr^1, D-Arg^2, Cpa^6, Ala^8, Har^9, Tyr(Me)^10, His^11, Orn^12, Abu^15, His^20, Orn^21, Nle^27, D-Arg^28, Har^29-AE2A^30] hGH-RH(1-29)NH2 [Peptide 11433]
Tumor growth after 28 days (%) [1]: 956%
Tumor growth after 46 days (%) [1]: 1890%
Inhibition (%) ([1]; after 28 days): 30.15%
Inhibition (%) ([1]; after 46 days): 43.23%

[PhAc^0-Tyr^1, D-Arg^2, (Phe(F)5)^6, Ala^8, Har^9, Tyr(Me)^10, His^11, Orn^12, Abu^15, His^20, Orn^21, Nle^27, D-Arg^28, Har^29-Ada^30]hGH-RH(1-29)NH2 [Peptide 11499]
Tumor growth after 28 days (%) [1]: 782%
Tumor growth after 46 days (%) [1]: 2178%
Inhibition (%) ([1]; after 28 days): 42.86%
Inhibition (%) ([1]; after 46 days): 34.59%

[Dca^0-Tyr^1, D-Arg^2, Cpa^6, Ala^8, Har^9, Tyr(Me)^10, His^11, Orn^12, Abu^15, Har^20, Orn^21, Nle^27, D-Arg^28, Har^29]hGH-RH(1-29)NH2 [Peptide 11513]
TUMOR GROWTH (%) ([2]; day 0 (baseline)): 100%
TUMOR GROWTH (%) ([2]; day 7): 212.49%
Tumor inhibition (%) ([2]; day 7): 35.86%
TUMOR GROWTH (%) ([2]; day 14): 420.81%
Tumor inhibition (%) ([2]; day 14): 28.79%
TUMOR GROWTH (%) ([2]; day 21): 823.51%
Tumor inhibition (%) ([2]; day 21): 30.80%
TUMOR GROWTH (%) ([2]; day 28): 1420.09%
Tumor inhibition (%) ([2]; day 28): 23.54%

[Oct^0-Tyr^1, D-Arg^2, Cpa^6, Ala^8, His^9, Tyr(Et)^10, His^11, Orn^12, Abu^15, His^20, Orn^21, Nle^27, D-Arg^28, Har^29-Ada^30]hGH-RH(1-29)NH2 [Peptide 11213]
Tumor growth after 28 days (%) [1]: 651%
Tumor growth after 46 days (%) [1]: 1144%
Inhibitory effect on PC-3 tumors compared with reference peptide JMR-132 [1]: had a more potent inhibitory effect than reference peptide JMR-132
Inhibition (%) ([1]; after 28 days): 52.41%
Inhibition (%) ([1]; after 46 days): 65.65%

[(Dca-Amc)^0-Tyr^1, D-Arg^2, Cpa^6, Ala^8, Har^9, Tyr(Me)^10, His^11, Orn^12, Orn^15, His^20, Orn^21, Nle^27, D-Arg^28, Har^29-Ada^30]hGH-RH(1-29)NH2 [Peptide 11521]
Tumor growth after 28 days (%) [1]: 877%
Tumor growth after 46 days (%) [1]: 2427%
Inhibition (%) ([1]; after 28 days): 35.86%
Inhibition (%) ([1]; after 46 days): 27.11%
